This note sets out measurements from patent US20230302150A1, “ANTIBODY-TLR AGONIST CONJUGATES, METHODS AND USES THEREOF” (Ambrx, Inc., priority 2020, published 2023).

The subject of experiment [1] is SKOV3 HER2 high expressing tumor cell line / RAW-Blue cells. Put plainly: RAW-Blue co-culture assay with SKOV3 tumor cells. It counts as cell-based, human. Particulars: conjugated to anti-HER2 antibody; data not shown. The protocol:
(§1) RAW-Blue™ cells (Invivogen, San Diego, CA) were co-cultured with human tumor cells with different levels of HER2 expression level at 1:1 E:T ratio with total number of 1 million cells per well in the 96 wells plate. Different concentration of small molecule TLR7 agonist and conjugated ISACs, (Immune Stimulating Antibody Conjugates), were added to the co-culture cell medium. After 24 h incubation, the levels of NF-kB-induced SEAP from the RAW-Blue™ cells were determined by Quanti-Blue detection reagents (Invivogen, San Diego, CA) with readings at OD 655 nm. The dose-response curves were generated using Prism Software.

The next experiment concerns the target T1, hTLR7 (Homo sapiens, UniProt Q9NYK1).
T1 construct: expressed in transfected cells; host or cells: HEK-Blue hTLR7 reporter cell line
T1 sequence (Q9NYK1 27-1049): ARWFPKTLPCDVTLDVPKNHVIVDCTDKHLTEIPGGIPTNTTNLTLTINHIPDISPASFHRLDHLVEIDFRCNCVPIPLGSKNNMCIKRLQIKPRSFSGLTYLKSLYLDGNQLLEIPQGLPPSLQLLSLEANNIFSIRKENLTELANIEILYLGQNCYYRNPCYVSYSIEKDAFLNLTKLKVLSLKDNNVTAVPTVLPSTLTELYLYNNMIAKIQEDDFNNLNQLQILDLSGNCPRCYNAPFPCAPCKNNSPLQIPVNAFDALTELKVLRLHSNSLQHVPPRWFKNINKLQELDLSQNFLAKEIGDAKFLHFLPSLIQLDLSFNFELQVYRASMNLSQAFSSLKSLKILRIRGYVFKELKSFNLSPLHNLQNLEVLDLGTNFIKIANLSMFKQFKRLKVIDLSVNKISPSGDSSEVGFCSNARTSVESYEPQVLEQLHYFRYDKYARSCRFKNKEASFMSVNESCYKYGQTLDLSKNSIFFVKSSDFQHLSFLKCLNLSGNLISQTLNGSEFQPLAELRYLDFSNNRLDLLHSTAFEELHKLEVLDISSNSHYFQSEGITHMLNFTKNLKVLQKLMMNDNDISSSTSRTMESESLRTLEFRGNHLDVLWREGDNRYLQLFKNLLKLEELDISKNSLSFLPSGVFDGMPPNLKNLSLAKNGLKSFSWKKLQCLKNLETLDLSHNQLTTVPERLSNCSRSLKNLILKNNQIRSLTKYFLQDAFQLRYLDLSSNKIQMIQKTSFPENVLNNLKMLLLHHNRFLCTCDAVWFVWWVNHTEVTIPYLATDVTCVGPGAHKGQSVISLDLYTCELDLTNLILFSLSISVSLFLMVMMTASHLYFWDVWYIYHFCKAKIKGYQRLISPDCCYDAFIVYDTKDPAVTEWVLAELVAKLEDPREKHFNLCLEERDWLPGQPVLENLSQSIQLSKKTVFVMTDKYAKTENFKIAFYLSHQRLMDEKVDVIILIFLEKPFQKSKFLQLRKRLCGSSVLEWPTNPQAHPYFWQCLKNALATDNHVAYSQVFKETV
Put plainly: HEK-Blue hTLR7 reporter assay (NF-kB-induced SEAP, Quanti-Blue). The experiment is classed as cell-based. The protocol:
HEK-Blue™ hTLR7 cells were incubated in HEK-Blue™ Detection medium and stimulated with increasing concentrations of TLR7 or TLR8 or TLR7/8 agonists. […] The EC50 was determined from dose-response curve using Prism Software.
Background: Reporter assays use an easily measured gene product as a stand-in for the process of interest.

Experiment [2] relates to SKBR3 HER2 high expressing tumor cell line / RAW-Blue cells. Put plainly: RAW-Blue co-culture assay with SKBR3 tumor cells (HER2 ISACs). It counts as cell-based, human. How it is done: as §1
The target of a further experiment is T2, TLR8 (Homo sapiens, UniProt Q9NR97).
T2 sequence (Q9NR97 27-1041): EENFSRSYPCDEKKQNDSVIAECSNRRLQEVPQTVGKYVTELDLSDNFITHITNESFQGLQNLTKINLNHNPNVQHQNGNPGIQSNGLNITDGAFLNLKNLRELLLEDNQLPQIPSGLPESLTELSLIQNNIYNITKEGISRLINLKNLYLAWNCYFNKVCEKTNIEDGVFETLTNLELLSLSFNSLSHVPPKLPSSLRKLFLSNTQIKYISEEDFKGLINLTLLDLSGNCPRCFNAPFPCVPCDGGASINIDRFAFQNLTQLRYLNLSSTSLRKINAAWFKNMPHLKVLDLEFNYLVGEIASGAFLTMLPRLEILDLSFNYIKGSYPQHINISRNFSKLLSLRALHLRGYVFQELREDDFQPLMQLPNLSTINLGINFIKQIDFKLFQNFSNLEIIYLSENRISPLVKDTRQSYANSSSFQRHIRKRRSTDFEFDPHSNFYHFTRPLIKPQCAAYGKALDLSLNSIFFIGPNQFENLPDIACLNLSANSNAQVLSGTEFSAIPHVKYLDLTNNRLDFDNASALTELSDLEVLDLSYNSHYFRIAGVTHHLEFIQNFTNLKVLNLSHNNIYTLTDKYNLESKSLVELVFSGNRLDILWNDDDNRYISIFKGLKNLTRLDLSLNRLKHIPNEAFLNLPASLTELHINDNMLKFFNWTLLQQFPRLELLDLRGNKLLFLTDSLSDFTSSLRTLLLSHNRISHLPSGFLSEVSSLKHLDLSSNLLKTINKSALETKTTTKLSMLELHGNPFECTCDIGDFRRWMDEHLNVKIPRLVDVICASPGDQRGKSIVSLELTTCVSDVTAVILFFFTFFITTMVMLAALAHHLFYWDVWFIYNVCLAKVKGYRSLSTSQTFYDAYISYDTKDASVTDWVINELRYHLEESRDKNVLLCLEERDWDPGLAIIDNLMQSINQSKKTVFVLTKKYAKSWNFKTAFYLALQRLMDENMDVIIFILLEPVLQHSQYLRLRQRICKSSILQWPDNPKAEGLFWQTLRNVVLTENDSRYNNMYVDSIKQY
The experiment in a line: TLR8 reporter assay. It counts as cell-based.

Setting [3] is: Table 12, TLR7 agonists attached to a linker, read-out: TLR Agonist Payload + Linkers EC50.
[4] abbreviates: Table 15, drug linker, read-out: TLR Agonist + Linker (DL) - EC50.
[5] abbreviates: Table 15, pAF containing final metabolite, read-out: TLR Agonist + Linker + nnAA (DL-pAF) - EC50.
The mark [6] stands for this setting: Table 19, TLR7, drug-linkers with PEG shielding, read-out: EC50.
[7] abbreviates: Table 11, TLR7 activities, read-out: EC50.

Read-outs that look alike come from different tables or passages of the source.

Broadly, the EC50 is the midpoint of the concentration-response curve. `CCCCOc1nc(N)c2[nH]c(=O)n(Cc3ccc(CNC(=O)CCOCCON)cc3)c2n1` [AXC-863]: the “tumor dependent ISAC activity” value in experiment [1] and in experiment [2] was “potent dose dependent activities only in the presence of HER2 high expressing tumor cell lines” throughout. The EC50 amounted to 864 nM on hTLR7 (setting [3]), 864 nM on hTLR7 (setting [4]), 287 nM at hTLR7 (setting [5]) and 320 nM at hTLR7 (setting [6]).
As to `CCCCOc1nc(N)c2[nH]c(=O)n(Cc3ccc(CN4CCC(CCNC(=O)CON)CC4)cc3)c2n1` [AXC-879, N-(2-(1-(4-((6-amino-2-butoxy-8-oxo-7H-purin-9(8H)-yl)methyl)benzyl)piperidin-4-yl)ethyl)-2-(aminooxy)acetamide], the “TLR7 activity (comparison in words)” value at hTLR7 is “highest potency among different TLR-agonist (payload) linkers”. Further, the EC50 on hTLR7 (setting [3]) turned out to be 151 nM; on hTLR7 (setting [4]) it was 151 nM; on hTLR7 (setting [5]), 90 nM. The “tumor dependent ISAC activity” value in experiment [2] is listed as “highest HER2 dependent TLR7 activities”.
As to `CCCCOc1nc(N)c2[nH]c(=O)n(Cc3ccc(CN4CCC(CCNC(=O)c5cc(F)c(N)c(F)c5)CC4)cc3)c2n1` [AXC-887, 4-amino-N-(2-(1-(4-((6-amino-2-butoxy-8-oxo-7H-purin-9(8H)-yl)methyl)benzyl)piperidin-4-yl)ethyl)-3,5-difluorobenzamide], the EC50 is 3730 nM on TLR8; 4.6 nM at hTLR7 (setting [7]); below 10 nM at hTLR7 (text to Table 11, TLR7, read-out: EC50).
As to `CCCCOc1nc(N)c2[nH]c(=O)n(Cc3ccc(CN4CCC(C5CCN(C(=O)CON)CC5)CC4)cc3)c2n1` [AXC-901, 6-amino-9-(4-((1′-(2-(aminooxy)acetyl)-4,4′-bipiperidin-1-yl)methyl)benzyl)-2-butoxy-7H-purin-8(9H)-one], the “TLR7 activity (comparison in words)” value on hTLR7 was “highest potency among different payload linkers”. The EC50 at hTLR7 (Table 13, TLR7, read-out: EC50) is 48 nM. Besides, the “tumor dependent ISAC activity” value in experiment [2] is “highest HER2 dependent TLR7 activities”.
In the case of `NOCC(=O)NCCC1CCN(Cc2ccc(Cn3ccc4c5nc(N)ncc5ccc43)cc2)CC1` [AXC-970, N-(2-(1-(4-((2-amino-7H-pyrrolo[2,3-h]quinazolin-7-yl)methyl)benzyl)piperidin-4-yl)ethyl)-2-(aminooxy)acetamide], the EC50 on hTLR7 (Core 3 compounds, assay not given, read-out: EC50) is above 10000 nM.
`CCCCOc1nc(NC(C)=O)c2[nH]c(=O)n(Cc3ccc(CN4CCC(CCON)CC4)cc3)c2n1` [AXC-978, N-(9-(4-((4-(2-(aminooxy)ethyl)piperidin-1-yl)methyl)benzyl)-2-butoxy-8-oxo-8,9-dihydro-7H-purin-6-yl)acetamide]: the EC50 on hTLR7 (setting [6]) was 28.9 nM.
On the same count and under the same terms, the figure for `CCCCOc1nc(N)c2[nH]c(=O)n(Cc3ccc(CN4CCC(CCON)CC4)cc3)c2n1` [AXC-979, 6-amino-9-(4-((4-(2-(aminooxy)ethyl)piperidin-1-yl)methyl)benzyl)-2-butoxy-7H-purin-8(9H)-one] is 21.7 nM; for `CCCCOc1nc(NC(C)=O)c2[nH]c(=O)n(Cc3ccc(CN4CCC(C5CCNCC5)CC4)cc3)c2n1` [AXC-980, N-(9-(4-(4,4′-bipiperidin-1-ylmethyl)benzyl)-2-butoxy-8-oxo-8,9-dihydro-7H-purin-6-yl)acetamide] it is 29.6 nM.
`CCCCOc1nc(NC(C)=O)c2[nH]c(=O)n(Cc3ccc(CN4CCC(C5CCN(C(=O)CON)CC5)CC4)cc3)c2n1` [AXC-981, N-(9-(4-((1′-(2-(aminooxy)acetyl)-4,4′-bipiperidin-1-yl)methyl)benzyl)-2-butoxy-8-oxo-8,9-dihydro-7H-purin-6-yl)acetamide]: the EC50 at hTLR7 (setting [6]) worked out at 10.1 nM.
The same measure, in the same setting: the figure for `CCCCOc1nc(NC(=O)CCOCCOCCOC)c2[nH]c(=O)n(Cc3ccc(CN4CCC(CCN)CC4)cc3)c2n1` [AXC-982, N-(9-(4-((4-(2-aminoethyl)piperidin-1-yl)methyl)benzyl)-2-butoxy-8-oxo-8,9-dihydro-7H-purin-6-yl)-3-(2-(2-methoxyethoxy)ethoxy)propanamide] is 19.1 nM; for `CCCCOc1nc(NC(=O)CCOCCOCCOC)c2[nH]c(=O)n(Cc3ccc(CN4CCC(CCNC(=O)CON)CC4)cc3)c2n1` [AXC-983, N-(9-(4-((4-(2-(2-(aminooxy)acetamido)ethyl)piperidin-1-yl)methyl)benzyl)-2-butoxy-8-oxo-8,9-dihydro-7H-purin-6-yl)-3-(2-(2-methoxyethoxy)ethoxy)propanamide] it is 53.3 nM.
With `CCCCNc1nc(N)c2[nH]c(=O)n(Cc3ccc(OCCN(C)C)nc3)c2n1` [DSR-6434, reference compound], the concentration for a half-maximal effect (EC50) on hTLR7 (Table 10, read-out: TLR7 EC50) came to 9.2 nM; at hTLR7 (setting [7]) it was 15.8 nM; on hTLR7 (setting [3]) it was 14.8 nM; on hTLR7 (Table 13, TLR7, read-out: EC50) it was 9 nM; at hTLR7 (Table 14, read-out: TLR7 EC50), 10.5 nM; at hTLR7 (setting [4]) it was 15 nM. The 50% effective concentration (EC50) was 11 nM at hTLR7 (setting [5]) and 14 nM on hTLR7 (setting [6]).
With `CCCN(CCC)C(=O)C1=Cc2ccc(-c3ccc(C(=O)N4CCCC4)cc3)cc2N=C(N)C1` [Motolimod, reference compound], on TLR8, the EC50 amounted to 1430 nM.
